Laboratory results: patent US12059408B2, “Treatment of cognitive impairment associated with schizophrenia” (Boehringer Ingelheim International GmbH, priority 2020, dated 2024)

How the values were obtained:
[1] = test system: patients with schizophrenia; assay: Phase II CIAS trial: cognition by MCCB, compound I add-on to antipsychotics vs placebo; type: in vivo, human; parameters: Change from baseline in MCCB overall composite score at Week 12, adjusted mean / Change from baseline in MCCB overall composite score at Week 12, comparison vs. placebo, adjusted mean: scale not given here; conditions: for Change from baseline in MCCB overall composite score at Week 12, adjusted mean: 12 weeks; for Change from baseline in MCCB overall composite score at Week 12, adjusted mean / Change from baseline in MCCB overall composite score at Week 12, comparison vs. placebo, adjusted mean: MMRM; for Change from baseline in MCCB overall composite score at Week 12, adjusted mean / Change from baseline in MCCB overall composite score at Week 12, comparison vs. placebo, adjusted mean / Proportion of responders, change from baseline in MCCB overall composite score at Week 12 / Responders, comparison vs. placebo, odds ratio: FAS; for Responders, comparison vs. placebo, odds ratio: logistic regression
Source text: This trial was designed to investigate whether compound I as an add-on therapy to antipsychotics (except clozapine) can improve cognitive symptoms in patients with schizophrenia.
The primary endpoint was cognition assessed using the Measurement and Treatment Research to Improve Cognition in Schizophrenia (MATRICS) consensus cognitive battery (MCCB).
• 1) Men or women who are 18-50 years (inclusive) of age at time of consent with established schizophrenia (as per DSM-5) with the following clinical features: • Outpatient, with no hospitalization for worsening of schizophrenia within 3 months (hospitalization for social management and/or day hospital programs within this time are acceptable) prior to randomization • Medically stable over the prior 4 weeks and psychiatrically stable without symptom exacerbation within 3 months prior to randomization • patients who have no more than a “moderate severe” rating on the Positive and Negative Symptom Scale (PANSS) positive items P1, P3-P7 (item score≤5) and no more than a “moderate” rating on the PANSS positive item P2 (item score≤4) • 2) Current antipsychotic and concomitant psychotropic medications as assessed at Visit 1 must meet the criteria below: • a. patients may have up to 2 antipsychotics (typical and/or atypical) • b. patients must be maintained on current typical and/or atypical antipsychotics other than Clozapine and on current dose for at least 4 weeks prior to randomization and/or maintained on current long acting injectable antipsychotics and current dose for at least 3 months prior to randomization • c. patients must be maintained on current concomitant psychotropic medications, anticholinergics, antiepileptics and/or lithium for at least 3 months prior to randomization and on current dose for at least 4 weeks prior to randomization.
Patients eligible for the trial were randomly assigned, in a 1:1:1:1:2 ratio to either • 2 mg compound I • 5 mg compound I • 10 mg compound I • 25 mg compound I • Placebo
An MCPMod approach combined with MMRM was used to establish the proof of concept in this trial.
The null hypothesis was that there was a flat dose-response pattern across placebo and any dose of compound I within the tested dose range on the mean change in the MCCB overall composite score from baseline to Week 12. The alternative hypothesis was that there was a non-flat dose-response pattern indicating a benefit of compound I versus placebo.
(§1) Patients in the FAS were analysed according to the ITT principle, i.e. according to their randomised trial medication. The FAS was used for analyses of efficacy.
The primary endpoint of this trial was the change from baseline in cognitive function as measured by the MCCB overall composite score after 12 weeks of treatment. The primary efficacy analysis was based on the full analysis set (FAS).
Model includes fixed, categorical factors of planned treatment, analysis visit, and planned treatment by analysis visit interaction, as well as the continuous fixed covariate of baseline value and baseline value by analysis visit interaction. Subject is treated as random effect. Unstructured covariance structure was used to fit the mixed model. Kenward-Roger was used to model degrees of freedom.

[2] = test system: patients with mild to moderate dementia due to AD; assay: AD trial: safety (AEs, laboratory tests); type: in vivo, human; conditions: 25 mg treatment group
Procedure: This was a 12-week, multi-centre, multi-national, randomised, double-blind, double-dummy, placebo-controlled, parallel-group trial in patients with mild to moderate dementia due to AD.
(§2) The TS included all patients who were randomised and were treated with ≥1 dose of trial medication. Patients in the TS were analysed according to the actual trial medication they received at randomisation. The TS was used for analyses of safety, demographics, and baseline characteristics.
Safety assessments included the frequency of AEs, recording of vital signs, ECG measurements, standard laboratory tests, physical examination, and C-SSRS questionnaires.

[3] = test system: patients with mild to moderate dementia due to AD; assay: AD trial: cognition by ADAS-Cog11, compound I vs placebo; type: in vivo, human; conditions: for Change from baseline in ADAS-Cog11 total score at Week 12, adjusted mean / Change from baseline in ADAS-Cog11 total score at Week 12, comparison vs. placebo, adjusted mean: MMRM, FAS (OC)
Source text: This trial was designed to investigate whether compound I either alone as monotherapy or as an add-on therapy to acetylcholinesterase inhibitors can improve cognitive symptoms in patients with AD.
The primary endpoint was change from baseline in ADAS-Cog11 (Alzheimer's Disease Assessment Scale-cognitive subscale) total score after 12-week treatment. (Lower values in the ADAS-Cog11 score indicate better cognitive function.)
• 1) Diagnosis of mild-to-moderate Alzheimer's Disease Dementia according to the recommendations from the National Institute on Aging-Alzheimer's Association workgroups on diagnostic guidelines for Alzheimer's disease. • 2) Male or female patients at least 55 years of age. Patients older than 85 years could be included based on an acceptable general health status, (e.g. concomitant diseases, physical capability to follow the required study procedures (visits etc.)) at discretion of the investigator • 3) MMSE score of 15-26 at screening (Visit 1). • 4) Concomitant use of AChEIs allowed but not required. Key Exclusion Criteria • 1) Dementia secondary to disorders other than Alzheimer's Disease Dementia. • 2) Any central nervous system disease other than AD which according to the investigator may be associated with worsening of cognition. • 3) Any suicidal behaviour in the past 2 years (i.e. actual attempt, interrupted attempt, aborted attempt, or preparatory acts or behaviour). • 4) Any suicidal ideation of type 4 or 5 in the C-SSRS in the past 3 months (i.e. active suicidal thought with intent but without specific plan, or active suicidal thought with plan and intent). • 5) Previous participation in investigational drug studies of dementia of Alzheimer's Type within three months prior to screening. Patients having received any active treatment in studies targeting disease modification of AD are excluded.
Patients eligible for the trial were randomly assigned, in a 1:1:1:1:1 ratio to either • 2 mg compound I • 5 mg compound I • 10 mg compound I • 25 mg compound I • Placebo
An MCPMod approach combined with MMRM was used to test for the proof of concept in this trial.
as §1
The primary endpoint was the change from baseline in ADAS-Cog11 total score after 12 weeks of treatment. The analyses for PoC and dose-finding were done using the MCPmod technique for MMRM.
Model includes fixed, categorical factors of planned treatment (p-value=0.3425), analysis visit (p-value=0.7890), baseline MMSE stratification factor (≥20, <20) (p-value≤0.0001), and planned treatment by analysis visit interaction (p-value=0.7534), as well as the continuous fixed covariate of baseline value (p-value≤0.0001) and baseline value by analysis visit interaction (p-value=0.1185).

[4] = test system: patients with schizophrenia; assay: Phase II CIAS trial: safety (AEs, laboratory tests, PANSS, C-SSRS)
Procedure: This was a 12-week, multi-centre, multi-national, randomised, double-blind, double-dummy, placebo-controlled, parallel-group trial in patients with clinically stable schizophrenia.
as §2
Safety was assessed based on the frequency of AEs, recording of vital signs, ECG measurements, standard laboratory tests, physical examination, neurological examination, as well as PANSS and C-SSRS questionnaires.

CSF glycine [5] = assay: Proof of clinical mechanism trial in healthy volunteers; type: in vivo, human; conditions: 10 mg dose
CSF glycine [6] = assay: Animal cognition tasks with CSF glycine and CSF compound levels; type: in vivo; conditions: animals
[7] = as above; type: in vivo; conditions: animals, efficacious doses

C[C@@H](Oc1ccc(S(C)(=O)=O)cc1C(=O)N1C[C@@H]2C[C@]2(c2cc(C(F)(F)F)on2)C1)C(F)(F)F [compound I, [5-(methylsulfonyl)-2-{[(2R)-1,1,1-trifluoropropan-2-yl]oxy}phenyl] {(1R,5R)-1-[5-(trifluoromethyl)-1,2-oxazol-3-yl]-3-azabicyclo[3.1.0]hex-3-yl}methanone]
Effect on cognition (dose considerations, Phase II trial) ([1]; 2 mg): ineffective | Change from baseline in MCCB overall composite score at Week 12, adjusted mean ([1]; 2 mg once daily oral): 1.784 | Change from baseline in MCCB overall composite score at Week 12, comparison vs. placebo, adjusted mean ([1]; 2 mg once daily): 0.280 | Effect on cognition (dose considerations, Phase II trial) ([1]; 5 mg): numerically improved cognition in Asian subpopulation | Change from baseline in MCCB overall composite score at Week 12, adjusted mean ([1]; 5 mg once daily oral): 1.641 | Change from baseline in MCCB overall composite score at Week 12, comparison vs. placebo, adjusted mean ([1]; 5 mg once daily): 0.137 | Effect on cognition (dose considerations, Phase II trial), primary endpoint ([1]; 10 mg): separated best from placebo | Change from baseline in MCCB neurocognitive composite score at Week 12 ([1]; 10 mg and 25 mg treatment groups compared with placebo): A larger change from baseline was observed | Change from baseline in MCCB overall composite score at Week 12, adjusted mean ([1]; 10 mg once daily oral): 3.486 | Change from baseline in MCCB overall composite score at Week 12, comparison vs. placebo, adjusted mean ([1]; 10 mg once daily): 1.982 | Effect on cognition (dose considerations, Phase II trial) ([1]; 25 mg): efficacy less consistent across analyses than the 10 mg dose | Change from baseline in MCCB overall composite score at Week 12, adjusted mean ([1]; 25 mg once daily oral): 3.234 | Change from baseline in MCCB overall composite score at Week 12, comparison vs. placebo, adjusted mean ([1]; 25 mg once daily): 1.730 | Cognitive performance compared to placebo, phase 2 clinical trial ([1]; certain doses, patients having schizophrenia): improves cognitive performance | Dose-response for change from baseline at Week 12 in MCCB overall composite T-score ([1]; doses of 2 to 25 mg): non-flat dose-response curve | Proportion of responders, change from baseline in MCCB overall composite score at Week 12 ([1]; responder ≥3, 2 mg): 46.3% | Responders, comparison vs. placebo, odds ratio ([1]; responder ≥3, 2 mg): 1.184 | Proportion of responders, change from baseline in MCCB overall composite score at Week 12 ([1]; responder ≥3, 5 mg): 42.3% | Responders, comparison vs. placebo, odds ratio ([1]; responder ≥3, 5 mg): 1.006 | Proportion of responders, change from baseline in MCCB overall composite score at Week 12 ([1]; responder ≥3, 10 mg): 61.5% | Responders, comparison vs. placebo, odds ratio ([1]; responder ≥3, 10 mg): 2.200 | Proportion of responders, change from baseline in MCCB overall composite score at Week 12 ([1]; responder ≥3, 25 mg): 47.4% | Responders, comparison vs. placebo, odds ratio ([1]; responder ≥3, 25 mg): 1.241 | Proportion of responders, change from baseline in MCCB overall composite score at Week 12 ([1]; responder ≥4, 2 mg): 40.3% | Responders, comparison vs. placebo, odds ratio ([1]; responder ≥4, 2 mg): 1.298 | Proportion of responders, change from baseline in MCCB overall composite score at Week 12 ([1]; responder ≥4, 5 mg): 38.0% | Responders, comparison vs. placebo, odds ratio ([1]; responder ≥4, 5 mg): 1.180 | Proportion of responders, change from baseline in MCCB overall composite score at Week 12 ([1]; responder ≥4, 10 mg): 52.6% | Responders, comparison vs. placebo, odds ratio ([1]; responder ≥4, 10 mg): 2.131 | Proportion of responders, change from baseline in MCCB overall composite score at Week 12 ([1]; responder ≥4, 25 mg): 41.0% | Responders, comparison vs. placebo, odds ratio ([1]; responder ≥4, 25 mg): 1.338 | Proportion of responders, change from baseline in MCCB overall composite score at Week 12 ([1]; responder ≥5, 2 mg): 35.8% | Responders, comparison vs. placebo, odds ratio ([1]; responder ≥5, 2 mg): 1.370 | Proportion of responders, change from baseline in MCCB overall composite score at Week 12 ([1]; responder ≥5, 5 mg): 32.4% | Responders, comparison vs. placebo, odds ratio ([1]; responder ≥5, 5 mg): 1.176 | Proportion of responders, change from baseline in MCCB overall composite score at Week 12 ([1]; responder ≥5, 10 mg): 44.9% | Responders, comparison vs. placebo, odds ratio ([1]; responder ≥5, 10 mg): 1.998 | Proportion of responders, change from baseline in MCCB overall composite score at Week 12 ([1]; responder ≥5, 25 mg): 39.7% | Responders, comparison vs. placebo, odds ratio ([1]; responder ≥5, 25 mg): 1.619 | Decrease of haemoglobin levels, maximum effect [2]: 5.7% | Change from baseline in ADAS-Cog11 total score at Week 12, adjusted mean ([3]; 2 mg once daily oral): −0.02 | Change from baseline in ADAS-Cog11 total score at Week 12, comparison vs. placebo, adjusted mean ([3]; 2 mg): 0.05 | Change from baseline in ADAS-Cog11 total score at Week 12, adjusted mean ([3]; 5 mg once daily oral): 0.23 | Change from baseline in ADAS-Cog11 total score at Week 12, comparison vs. placebo, adjusted mean ([3]; 5 mg): 0.30 | Change from baseline in ADAS-Cog11 total score at Week 12, adjusted mean ([3]; 10 mg once daily oral): 0.69 | Change from baseline in ADAS-Cog11 total score at Week 12, comparison vs. placebo, adjusted mean ([3]; 10 mg): 0.76 | Change from baseline in ADAS-Cog11 total score at Week 12, adjusted mean ([3]; 25 mg once daily oral): −0.08 | Change from baseline in ADAS-Cog11 total score at Week 12, comparison vs. placebo, adjusted mean ([3]; 25 mg): −0.02 | Dose-response of change from baseline in ADAS-Cog11 total score at Week 12 (MCPmod, 6 models) ([3]; 2 to 25 mg): no dose response relation was observed | Secondary and further endpoints: ADCS-ADL, CIBIC+, cognitive composite, COWAT, VFT, Coding, Digit Span Backwards ([3]; change from baseline): no treatment differences indicative of a benefit were found | Improvement of cognition in patients suffering from Alzheimer's disease ([3]; same doses regimen as CIAS): ineffective | Haemoglobin, mean change from baseline at last on-treatment value ([4]; 2 mg): -0.2 g/L | Haemoglobin, relative change from baseline ([4]; 2 mg): −0.1% | Haemoglobin, mean change from baseline at last on-treatment value ([4]; 5 mg): -0.7 g/L | Haemoglobin, relative change from baseline ([4]; 5 mg): −0.5% | Haemoglobin, mean change from baseline at last on-treatment value ([4]; 10 mg): 3.3 g/L | Haemoglobin, relative change from baseline ([4]; 10 mg): −2.3% | Haemoglobin, mean change from baseline at last on-treatment value ([4]; 25 mg): 4.5 g/L | Haemoglobin, relative change from baseline ([4]; 25 mg): −3.2% | Headache (most frequently observed AE) ([4]; all dose groups vs placebo): reported more frequently in all dose groups of compound I than placebo | Deaths ([4]; all treatment groups, 12 weeks): no deaths | Patients reporting on-treatment AEs ([4]; any treatment arm): Approximately 50% | Suicidal ideation and behaviour assessed using C-SSRS ([4]; compound I vs placebo): No significant differences | Worsening of schizophrenia assessed by PANSS total score ([4]; in vivo): no worsening of schizophrenia | CSF glycine increase and CSF level criteria (CSF glycine [5]): these criteria were met by the 10 mg dose | Increase of CSF glycine at doses efficacious in animal cognition tasks (CSF glycine [6]): approximately 50% | CSF levels of compound I required for efficacy [7]: 1-2 × GlyT1 IC50
